Assay results reported in article PMC4405350, “From Broad-Spectrum Biocides to Quorum Sensing Disruptors and Mussel Repellents: Antifouling Profile of Alkyl Triphenylphosphonium Salts” (PLoS ONE, 2015).
Read-outs that look alike come from different tables or passages of the source.

Tests used:
Alternaria sp. = test: Marine-derived fungi growth inhibition (OD405); format: cell-based; details: Alternaria, 120 h, read-out: IC50 Alternaria sp.
Method: (§1) All the biological assays were run by triplicate. […] For the active products, serial dilutions were performed to calculate the half-maximal inhibitory concentrations (IC50) or the minimal inhibitory concentrations (MIC). Unless otherwise stated, the test concentrations were 100, 50, 25, 10, 5, 2.5, 1, 0.5 and 0.1 μM. Dose-response curves were adjusted with GraphPad Prism 5 software using a four-parameter non-linear regression model.
(§2) Three strains of marine-derived fungi were kindly provided by Dr. Á. Trigos (University of Veracruz, Mexico). The strains were isolated from reef organisms collected from the Veracruz Reef System and identified as Aspergillus sp., Fusarium sp. and Alternaria sp..
(§3) Fungal strains were cultured in Potato-Dextrose Agar (PDA) supplemented with filtered seawater (FSW) (50% v/v) at 26 °C for 5 days prior to experiments. […] Briefly, fungal inocula were prepared by addition of 5 ml of sterile saline solution to the cultures. Gently swabbing released conidia. […] The plates were incubated for 5 days at 26 °C. The calculation of the half-maximal inhibitory concentrations (IC50) was performed using OD405 as endpoint.

Aspergillus sp. = test: Marine-derived fungi growth inhibition (OD405); format: cell-based; details: Aspergillus, 120 h, read-out: IC50 Aspergillus sp.
Method: as §1, §2, §3

C. violaceum CVO26 = C. violaceum CVO26 growth inhibition (OD625); format: cell-based; details: Chromobacterium violaceum, CVO26, 18 h, read-out: IC50 (Growth inhibition)
Method: (§4) The reporter strain C. violaceum CVO26 (CECT 5999) was used to screen the ability of the products to interfere with violacein production, a QS-regulated phenotype. C. violaceum CVO26 is a mini-Tn5 mutant that depends on an exogenous source of autoinducer (AI) (N-hexanoyl homoserine lactone, HHL) for violacein production. C. violaceum CVO26 was cultured in LB broth (Sigma-Aldrich) supplemented with 25 μg ml^-1 kanamycin. Inocula were prepared by dilution (1:100) of an overnight culture of the reporter strain [49]. One hundred microliters of inoculum with HHL (Sigma-Aldrich, 6 μM) or without the AI were added to 96-well plates containing 100 μl of the appropriate dilutions of the test products in LB. Thus, two sets of plates were prepared. One set of plates (without HHL) was used to evaluate the effect of the products on bacterial growth, whereas the other set of plates (with HHL) was used to evaluate their effect on violacein production. Both sets of plates were incubated at 30 °C with agitation (150 rpm) for 18 h.
(§5) Growth inhibition was quantified in the first batch of plates by re-suspending bacterial pellets and measuring the OD625. From the second batch of plates violacein was extracted and quantified. Briefly, the plates were dried overnight (60 °C) and violacein was re-solubilized by the addition of 200 μl of DMSO. The plates were shaken for 3 h and then the OD590 was determined.
(§6) Indeed, the inhibitions observed in violacein production for long alkyl chains (10–18, 20) were clearly correlated to the biocidal effect exerted by these compounds, with ‘therapeutic ratios’ (IC50 for growth inhibition/IC50 for violacein inhibition) around 1, in general (Table 2). Note that, as the length of the hydrocarbon chain becomes shorter, this ratio increased (8–9). […] To evaluate these compounds in further detail, […] stock solutions were prepared […] to avoid the use of high concentrations of DMSO in the bioassays. […] Serial two-fold dilutions (500–3.9 μM) were assayed. Consequently, the highest amount of DMSO used in the assay was 0.25% (v/v). […] Growth inhibitory effects are only observed at 500 μM, particularly for compound 7 (Fig 6D).

[1] = tested on: violacein production of C. violaceum CVO26; test: Quorum sensing bioassay: violacein production; format: cell-based, Chromobacterium violaceum; details: 18 h; for IC50: Chromobacterium violaceum, read-out: IC50 (Violacein inhibition); for IC50 (Violacein inhibition): with HHL, compounds 3-5 and 7 tested up to 500 μM, others up to 100 μM
Method: as §4, §5
To evaluate the effect of the alkyl triphenylphosphonium salts on QS-regulated phenotypes, an initial screening at the cut-off concentration of 100 μM was conducted with C. violaceum CVO26. The QS model of C. violaceum is relatively simple and consists of an acyl-homoserine lactone synthase (CviI) that produces the AI molecule N-hexanoyl homoserine lactone (HHL, strain ATCC 31532), or N-3-hydroxydecanoyl homoserine lactone (strain ATCC 12472) which is recognized by the cytoplasmic receptor CviR (Fig 4). The reporter strain CVO26 is a CviI::mini-Tn5 mutant of strain ATCC 31532 and thus recognizes HHL. CviR is a DNA-binding transcription factor that activates the expression of the genes encoding the production of violacein, the characteristic purple alkaloid that gives name to the species.
as §6

[2] = tested on: V. harveyi BB120 (wild type strain); test: Quorum sensing bioassay: bioluminescence; format: cell-based; details: Vibrio harveyi, 18 h, read-out: IC50 Luminescence WT
Method: (§7) V. harveyi BB120 (wild type strain), BB170 (luxN::Tn5kan), BB886 (luxPQ::Tn5kan) and BB721 (luxO::Tn5lacZ) were acquired from ATCC. To screen the ability of the compounds to interfere with QS, the test products were serially diluted in 100 μl of Autoinducer Bioassay (AB) medium using white, clear-bottom 96-well microtiter plates (Costar 3610) as assay platform. Aerobic bacterial cultures were incubated overnight (30 °C) and diluted 1:50. One-hundred μl of the diluted cultures were dispensed inside each well in the microtiter plate. That gave a starting cell density of 1–2 x 10^7 cfu ml^-1. The plates were covered with a sterile sealing film. Luminescence and OD600 were monitored every 15 min over 18 h with a multimode plate reader (Perkin-Elmer EnSpire) in order to correlate the effects of the products on both the growth and bioluminescence kinetics.
(§8) Compounds 3–5 and 7 were evaluated in V. harveyi WT and three mutant strains: BB886 (luxPQ::Tn5Kan), unable to detect AI-2; BB170 (luxN::Tn5Kan), unable to detect HAI-1; and BB721 (luxO::Tn5lacZ), a LuxO null mutant that produces maximal luminescence per cell constitutively. In order to take into account the cumulative effects of the compounds, bioluminescence and growth were measured simultaneously every 15 min over 18 h (Fig 7). Accordingly, IC50 values for bacterial luminescence and growth were obtained by integration of the areas under the curves for each tested dose (Table 3). For clarity of the graphs, error bars has been omitted in Fig 7 and only the mean curves are shown.

[3] = tested on: V. harveyi BB170 (luxN::Tn5kan); test: Quorum sensing bioassay: bioluminescence; format: cell-based; details: Vibrio harveyi, 18 h, read-out: IC50 Luminescence BB170
Method: as §7, §8

[4] = tested on: V. harveyi BB721 (luxO::Tn5lacZ); test: Quorum sensing bioassay: bioluminescence; format: cell-based; details: Vibrio harveyi, 18 h, read-out: IC50 Luminescence BB721
Method: as §7, §8

[5] = tested on: V. harveyi BB886 (luxPQ::Tn5kan); test: Quorum sensing bioassay: bioluminescence; format: cell-based; details: Vibrio harveyi, 18 h, read-out: IC50 Luminescence BB886
Method: as §7, §8

[6] = tested on: V. harveyi WT and reporter strains; test: V. harveyi growth inhibition (OD600); format: cell-based; details: Vibrio harveyi, 18 h, read-out: IC50 Growth
Method: as §7, §8

[7] = growth inhibition, 5 days, 26 °C

Structure (SMILES) | IC50 (Alternaria sp.; [7]) | IC50 (Aspergillus sp.; [7]) | IC50 (C. violaceum CVO26) | IC50 [1] | IC50 (Violacein inhibition) [1] | IC50 [2] | IC50 [3] | IC50 [4] | IC50 [5] | IC50 [6] | IC50 (Alternaria sp.) | IC50 (Aspergillus sp.)
BrC(Br)[P+](c1ccccc1)(c1ccccc1)c1ccccc1 [Compound 1] | > 100 µM | > 100 µM | > 100 µM | > 100 µM | inactive |  |  |  |  |  |  | 
COC(=O)CCC[P+](c1ccccc1)(c1ccccc1)c1ccccc1 [Compound 2] | > 100 µM | > 100 µM | > 100 µM | > 100 µM | inactive |  |  |  |  |  |  | 
C/C=C/C[P+](c1ccccc1)(c1ccccc1)c1ccccc1 [Compound 3] | > 100 µM | > 100 µM | > 500 µM | 92.3 µM |  | 297 µM | 251 µM | 348 µM | 265 µM | > 500 µM |  | 
BrCCCC[P+](c1ccccc1)(c1ccccc1)c1ccccc1 [Compound 4] | > 100 µM | > 100 µM | > 500 µM | 142 µM |  | > 500 µM | 226 µM | > 500 µM | 307 µM | > 500 µM |  | 
CCCCN[P+](c1ccccc1)(c1ccccc1)c1ccccc1 [Compound 5] | > 100 µM | > 100 µM | > 500 µM | 137 µM |  | > 500 µM | > 500 µM | > 500 µM | > 500 µM | > 500 µM |  | 
O=S(=O)([O-])CCCC[P+](c1ccccc1)(c1ccccc1)c1ccccc1 [Compound 6] | > 100 µM | > 100 µM | > 100 µM | > 100 µM |  |  |  |  |  |  |  | 
CCCCC[P+](c1ccccc1)(c1ccccc1)c1ccccc1 [Compound 7] | > 100 µM | > 100 µM | > 500 µM | 52.9 µM |  | 205 µM | 129 µM | 276 µM | 179 µM | > 500 µM |  | 
CCCCCCC[P+](c1ccccc1)(c1ccccc1)c1ccccc1 [Compound 8, heptyl triphenylphosphonium bromide] | 12 µM | 12.4 µM | 52.5 µM | 19 µM |  |  |  |  |  |  |  | 
CCCCCCCCC[P+](c1ccccc1)(c1ccccc1)c1ccccc1 [Compound 9] | 7.4 µM | 10 µM | 16 µM | 7.6 µM |  |  |  |  |  |  |  | 
CCCCCCCCCC[P+](c1ccccc1)(c1ccccc1)c1ccccc1 [Compound 10] | 5.2 µM | 11.7 µM | 11.9 µM | 7.7 µM |  |  |  |  |  |  |  | 
CCCCCCCCCCC[P+](c1ccccc1)(c1ccccc1)c1ccccc1 [Compound 11] | 3.5 µM | 5.1 µM | 4.9 µM | 3.5 µM |  |  |  |  |  |  |  | 
CCCCCCCCCCCC[P+](c1ccccc1)(c1ccccc1)c1ccccc1 [Compound 12] |  |  | 10.3 µM | 6.6 µM |  |  |  |  |  |  | 1.2 µM | 7.5 µM
CCCCCCCCCCCCC[P+](c1ccccc1)(c1ccccc1)c1ccccc1 [Compound 13] | 1.6 µM | 4.8 µM | 3.2 µM | 3.9 µM |  |  |  |  |  |  |  | 
CCCCCCCCCCCCCC[P+](c1ccccc1)(c1ccccc1)c1ccccc1 [Compound 14] | 0.7 µM | 5.3 µM | 2.3 µM | 4.6 µM |  |  |  |  |  |  |  | 
CCCCCCCCCCCCCCC[P+](c1ccccc1)(c1ccccc1)c1ccccc1 [Compound 15] | 2.9 µM | 5.2 µM | 2.6 µM | 1.2 µM |  |  |  |  |  |  |  | 
CCCCCCCCCCCCCCCC[P+](c1ccccc1)(c1ccccc1)c1ccccc1 [Compound 16] | 1.4 µM | 5.2 µM | 3.2 µM | 4.2 µM |  |  |  |  |  |  |  | 
CCCCCCCCCCCCCCCCCC[P+](c1ccccc1)(c1ccccc1)c1ccccc1 [Compound 17] | 1.3 µM | 10.2 µM | 7 µM | 7 µM |  |  |  |  |  |  |  | 
CCCCCCCCCCCCCCCCCCC[P+](c1ccccc1)(c1ccccc1)c1ccccc1 [Compound 18] | 5.3 µM | 19.6 µM | 40.1 µM | 35.2 µM |  |  |  |  |  |  |  | 
O=C(O)CCCCCCCCCC[P+](c1ccccc1)(c1ccccc1)c1ccccc1 [Compound 19] | > 100 µM | > 100 µM | > 100 µM | > 100 µM |  |  |  |  |  |  |  | 
c1ccc([P+](CCCCCCCCCCCC[P+](c2ccccc2)(c2ccccc2)c2ccccc2)(c2ccccc2)c2ccccc2)cc1 [Compound 20] | 0.3 µM | 0.6 µM | 12.8 µM | 16.7 µM |  |  |  |  |  |  |  | 
